Reference: PubChem BioAssay (NCI)
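Step 1: Grow cells in 96-well plates. Step 2: Expose to compound for 48 hours at 5 concentrations. Step 3: Interpolate endpoints linearly; if unreached, use highest concentration. GI50 marks 50% less growth. TGI is the concentration that stops growth completely.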

What was measured:
Assay in all cases: NCI-60 cell line screen, 48 h
786-0 renal = test system: 786-0 renal
A498 renal = test system: A498 renal
A549 NSCLC = test system: A549 NSCLC
ACHN renal = test system: ACHN renal
BT-549 breast = test system: BT-549 breast
CAKI-1 renal = test system: CAKI-1 renal
CCRF-CEM leukemia = test system: CCRF-CEM leukemia
COLO 205 colon = test system: COLO 205 colon
DU-145 prostate = test system: DU-145 prostate
EKVX NSCLC = test system: EKVX NSCLC
HCC-2998 colon = test system: HCC-2998 colon
HCT-116 colon = test system: HCT-116 colon
HCT-15 colon = test system: HCT-15 colon
HL-60(TB) leukemia = test system: HL-60(TB) leukemia
HOP-62 NSCLC = test system: HOP-62 NSCLC
HOP-92 NSCLC = test system: HOP-92 NSCLC
HS 578T breast = test system: HS 578T breast
HT29 colon = test system: HT29 colon
IGROV1 ovarian = test system: IGROV1 ovarian
K-562 leukemia = test system: K-562 leukemia
KM12 colon = test system: KM12 colon
LOX IMVI melanoma = test system: LOX IMVI melanoma
M14 melanoma = test system: M14 melanoma
MALME-3M melanoma = test system: MALME-3M melanoma
MCF7 breast = test system: MCF7 breast
MDA-MB-231 breast = test system: MDA-MB-231 breast
MDA-MB-435 = test system: MDA-MB-435
MDA-MB-468 breast = test system: MDA-MB-468 breast
MOLT-4 leukemia = test system: MOLT-4 leukemia
NCI-H226 lung = test system: NCI-H226 lung
NCI-H23 lung = test system: NCI-H23 lung
NCI-H460 lung = test system: NCI-H460 lung
NCI-H522 lung = test system: NCI-H522 lung
OVCAR-3 ovarian = test system: OVCAR-3 ovarian
OVCAR-4 ovarian = test system: OVCAR-4 ovarian
OVCAR-5 ovarian = test system: OVCAR-5 ovarian
OVCAR-8 ovarian = test system: OVCAR-8 ovarian
PC-3 prostate = test system: PC-3 prostate
RPMI-8226 leukemia = test system: RPMI-8226 leukemia
RXF 393 renal = test system: RXF 393 renal
SF-268 CNS = test system: SF-268 CNS
SF-295 CNS = test system: SF-295 CNS
SF-539 CNS = test system: SF-539 CNS
SK-MEL-2 melanoma = test system: SK-MEL-2 melanoma
SK-MEL-28 melanoma = test system: SK-MEL-28 melanoma
SK-MEL-5 melanoma = test system: SK-MEL-5 melanoma
SK-OV-3 ovarian = test system: SK-OV-3 ovarian
SN12C renal = test system: SN12C renal
SNB-19 CNS = test system: SNB-19 CNS
SNB-75 CNS = test system: SNB-75 CNS
SR leukemia = test system: SR leukemia
SW-620 colon = test system: SW-620 colon
T-47D breast = test system: T-47D breast
TK-10 renal = test system: TK-10 renal
U251 CNS = test system: U251 CNS
UACC-257 melanoma = test system: UACC-257 melanoma
UACC-62 melanoma = test system: UACC-62 melanoma
UO-31 renal = test system: UO-31 renal

How did the GI50 (786-0 renal) turn out when `O=C(/C=C/c1cccc(Br)c1)c1nc2ccccc2n1Cc1ccc(Br)cc1` was run?
The GI50 was 1.86 µM.

What about the TGI (786-0 renal) of the same compound?
Its TGI is 3.7 µM.

What about the GI50 (A498 renal) of the same compound?
Its GI50 is 13.5 µM.

What about the TGI (A498 renal) of the same compound?
The TGI was 28.1 µM.

And the GI50 (A549 NSCLC)?
The GI50 was 3.97 µM.

What about the TGI (A549 NSCLC) of the same compound?
Its TGI is greater than 100 µM.

And the GI50 (ACHN renal)?
Its GI50 is 2.41 µM.

What about the TGI (ACHN renal) of the same compound?
The TGI was 6.53 µM.

And the GI50 (BT-549 breast)?
Its GI50 is 1.77 µM.

What about the TGI (BT-549 breast) of the same compound?
The TGI was 3.55 µM.

What about the GI50 (CAKI-1 renal) of the same compound?
Its GI50 is 1.85 µM.

And the TGI (CAKI-1 renal)?
Its TGI is 5.35 µM.

What about the GI50 (CCRF-CEM leukemia) of the same compound?
The GI50 was 2.09 µM.

What about the TGI (CCRF-CEM leukemia) of the same compound?
Its TGI is greater than 100 µM.

And the GI50 (COLO 205 colon)?
The GI50 was 1.99 µM.

What about the TGI (COLO 205 colon) of the same compound?
Its TGI is 4.11 µM.

What about the GI50 (DU-145 prostate) of the same compound?
The GI50 was 4.1 µM.

And the TGI (DU-145 prostate)?
The TGI was 15.9 µM.

And the GI50 (EKVX NSCLC)?
The GI50 was 2.4 µM.

And the TGI (EKVX NSCLC)?
Its TGI is 7.64 µM.

What about the GI50 (HCC-2998 colon) of the same compound?
The GI50 was 1.69 µM.

What about the TGI (HCC-2998 colon) of the same compound?
Its TGI is 3.12 µM.

What about the GI50 (HCT-116 colon) of the same compound?
The GI50 was 1.67 µM.

And the TGI (HCT-116 colon)?
The TGI was 3.14 µM.

What about the GI50 (HCT-15 colon) of the same compound?
Its GI50 is 1.56 µM.

What about the TGI (HCT-15 colon) of the same compound?
Its TGI is 3.19 µM.

And the GI50 (HL-60(TB) leukemia)?
Its GI50 is 1.75 µM.

And the TGI (HL-60(TB) leukemia)?
The TGI was 5.12 µM.

And the GI50 (HOP-62 NSCLC)?
The GI50 was 2.16 µM.

What about the TGI (HOP-62 NSCLC) of the same compound?
Its TGI is 4.76 µM.

And the GI50 (HOP-92 NSCLC)?
The GI50 was 1.6 µM.

And the TGI (HOP-92 NSCLC)?
The TGI was 6.46 µM.

What about the GI50 (HS 578T breast) of the same compound?
Its GI50 is 3.71 µM.

And the TGI (HS 578T breast)?
The TGI was greater than 100 µM.

And the GI50 (HT29 colon)?
The GI50 was 2.13 µM.

And the TGI (HT29 colon)?
Its TGI is 4.9 µM.

And the GI50 (IGROV1 ovarian)?
Its GI50 is 2.16 µM.

What about the TGI (IGROV1 ovarian) of the same compound?
Its TGI is 5.4 µM.

And the GI50 (K-562 leukemia)?
Its GI50 is 2.6 µM.

And the TGI (K-562 leukemia)?
Its TGI is greater than 100 µM.

And the GI50 (KM12 colon)?
The GI50 was 2.53 µM.

And the TGI (KM12 colon)?
Its TGI is 7.44 µM.

What about the GI50 (LOX IMVI melanoma) of the same compound?
Its GI50 is 1.5 µM.

What about the TGI (LOX IMVI melanoma) of the same compound?
Its TGI is 2.9 µM.

And the GI50 (M14 melanoma)?
The GI50 was 1.77 µM.

And the TGI (M14 melanoma)?
Its TGI is 3.59 µM.

And the GI50 (MALME-3M melanoma)?
The GI50 was 1.91 µM.

And the TGI (MALME-3M melanoma)?
The TGI was 3.97 µM.

What about the GI50 (MCF7 breast) of the same compound?
Its GI50 is 1.7 µM.

What about the TGI (MCF7 breast) of the same compound?
The TGI was 5.71 µM.

And the GI50 (MDA-MB-231 breast)?
The GI50 was 2.06 µM.

What about the TGI (MDA-MB-231 breast) of the same compound?
Its TGI is 4.61 µM.

And the GI50 (MDA-MB-435)?
Its GI50 is 2.01 µM.

And the TGI (MDA-MB-435)?
The TGI was 4.79 µM.

What about the GI50 (MDA-MB-468 breast) of the same compound?
Its GI50 is 1.87 µM.

And the TGI (MDA-MB-468 breast)?
Its TGI is 3.85 µM.

And the GI50 (MOLT-4 leukemia)?
Its GI50 is 2.11 µM.

What about the TGI (MOLT-4 leukemia) of the same compound?
The TGI was 9.16 µM.

What about the GI50 (NCI-H226 lung) of the same compound?
Its GI50 is 2.45 µM.

What about the TGI (NCI-H226 lung) of the same compound?
Its TGI is 6.13 µM.

What about the GI50 (NCI-H23 lung) of the same compound?
The GI50 was 1.77 µM.

What about the TGI (NCI-H23 lung) of the same compound?
Its TGI is 3.99 µM.

And the GI50 (NCI-H460 lung)?
Its GI50 is 1.77 µM.

What about the TGI (NCI-H460 lung) of the same compound?
Its TGI is 3.87 µM.

What about the GI50 (NCI-H522 lung) of the same compound?
The GI50 was 1.73 µM.

What about the TGI (NCI-H522 lung) of the same compound?
The TGI was 3.48 µM.

And the GI50 (OVCAR-3 ovarian)?
The GI50 was 1.56 µM.

What about the TGI (OVCAR-3 ovarian) of the same compound?
The TGI was 3.3 µM.

What about the GI50 (OVCAR-4 ovarian) of the same compound?
The GI50 was 4.07 µM.

And the TGI (OVCAR-4 ovarian)?
Its TGI is greater than 100 µM.

What about the GI50 (OVCAR-5 ovarian) of the same compound?
The GI50 was 2.06 µM.

What about the TGI (OVCAR-5 ovarian) of the same compound?
The TGI was 4.08 µM.

And the GI50 (OVCAR-8 ovarian)?
Its GI50 is 2.15 µM.

What about the TGI (OVCAR-8 ovarian) of the same compound?
The TGI was 5.71 µM.

And the GI50 (PC-3 prostate)?
Its GI50 is 3.3 µM.

What about the TGI (PC-3 prostate) of the same compound?
The TGI was 14.9 µM.

What about the GI50 (RPMI-8226 leukemia) of the same compound?
Its GI50 is 2.39 µM.

And the TGI (RPMI-8226 leukemia)?
The TGI was 8.27 µM.

What about the GI50 (RXF 393 renal) of the same compound?
Its GI50 is 1.54 µM.

And the TGI (RXF 393 renal)?
Its TGI is 2.95 µM.

What about the GI50 (SF-268 CNS) of the same compound?
The GI50 was 4.93 µM.

What about the TGI (SF-268 CNS) of the same compound?
The TGI was 71.7 µM.

What about the GI50 (SF-295 CNS) of the same compound?
The GI50 was 2.07 µM.

And the TGI (SF-295 CNS)?
The TGI was 5.11 µM.

What about the GI50 (SF-539 CNS) of the same compound?
Its GI50 is 1.99 µM.

And the TGI (SF-539 CNS)?
Its TGI is 3.92 µM.

And the GI50 (SK-MEL-2 melanoma)?
Its GI50 is 1.66 µM.

What about the TGI (SK-MEL-2 melanoma) of the same compound?
The TGI was 3.29 µM.

What about the GI50 (SK-MEL-28 melanoma) of the same compound?
Its GI50 is 1.82 µM.

What about the TGI (SK-MEL-28 melanoma) of the same compound?
The TGI was 3.68 µM.

What about the GI50 (SK-MEL-5 melanoma) of the same compound?
The GI50 was 1.7 µM.

And the TGI (SK-MEL-5 melanoma)?
Its TGI is 3.55 µM.

What about the GI50 (SK-OV-3 ovarian) of the same compound?
Its GI50 is 14.4 µM.

What about the TGI (SK-OV-3 ovarian) of the same compound?
Its TGI is greater than 100 µM.

And the GI50 (SN12C renal)?
The GI50 was 3.42 µM.

What about the TGI (SN12C renal) of the same compound?
Its TGI is 12.9 µM.

And the GI50 (SNB-19 CNS)?
Its GI50 is 1.77 µM.

And the TGI (SNB-19 CNS)?
Its TGI is 3.64 µM.

What about the GI50 (SNB-75 CNS) of the same compound?
Its GI50 is 3.4 µM.

What about the TGI (SNB-75 CNS) of the same compound?
The TGI was 25.2 µM.

What about the GI50 (SR leukemia) of the same compound?
Its GI50 is 2.53 µM.

And the TGI (SR leukemia)?
Its TGI is 8.96 µM.

And the GI50 (SW-620 colon)?
Its GI50 is 1.6 µM.

What about the TGI (SW-620 colon) of the same compound?
Its TGI is 3.59 µM.

What about the GI50 (T-47D breast) of the same compound?
The GI50 was 2.33 µM.

And the TGI (T-47D breast)?
The TGI was 9.62 µM.

And the GI50 (TK-10 renal)?
The GI50 was 3.07 µM.

And the TGI (TK-10 renal)?
The TGI was 11.6 µM.

And the GI50 (U251 CNS)?
Its GI50 is 1.7 µM.

And the TGI (U251 CNS)?
The TGI was 3.38 µM.

And the GI50 (UACC-257 melanoma)?
The GI50 was 3.04 µM.

And the TGI (UACC-257 melanoma)?
The TGI was 12 µM.

What about the GI50 (UACC-62 melanoma) of the same compound?
Its GI50 is 1.54 µM.

And the TGI (UACC-62 melanoma)?
The TGI was 3.28 µM.

What about the GI50 (UO-31 renal) of the same compound?
The GI50 was 1.37 µM.

What about the TGI (UO-31 renal) of the same compound?
Its TGI is 2.78 µM.
